Measured values reported in the NIST ThermoML archive (doi:10.1016/j.jct.2013.05.031).

Conditions: for surface tension liquid-gas: Capillary rise; for viscosity / mass density: 101.33 kPa, Liquid; for viscosity: Capillary tube (Ostwald / Ubbelohde) method; for mass density: Pycnometric method

CCCCCCCCCCCC[N+](CC)(CC)CC.O=S(=O)([N-]S(=O)(=O)C(F)(F)F)C(F)(F)F
Conditions | mass density [kg/m3] | surface tension liquid-gas [mN/m] | viscosity [mPa·s]
298 K | 1191.1 | 31.8 | 311.8
303 K | 1187.1 | 31.3 | 227.6
308 K | 1183.1 | 30.9 | 167.7
313 K | 1179.4 | 30.3 | 137.8
318 K | 1175.7 | 29.9 | 98.82
323 K | 1171.6 | 29.5 | 78.71
328 K | 1167.9 | 29.1 | 62.52
333 K | 1164.2 | 28.5 | 49.82
338 K | 1160.7 | 28.2 | 41.48
343 K | 1157.2 | 27.7 | 34.69
348 K | 1153.3 | 27.2 | 29.44
353 K | 1149.5 | 26.8 | 25.13
358 K | 1145.5 | 26.4 | 21.3
363 K | 1141.4 | 26 | 18.31
368 K | 1137.6 | 25.5 | 16.51
373 K | 1133.7 | 25.2 | 14.2

CCCCCC[N+](CC)(CC)CC.O=S(=O)([N-]S(=O)(=O)C(F)(F)F)C(F)(F)F [triethylhexylammonium bis((trifluoromethyl)sulfonyl)imide]
Conditions | mass density [kg/m3] | surface tension liquid-gas [mN/m] | viscosity [mPa·s]
298 K | 1291.4 | 34.1 | 186.6
303 K | 1287.4 | 33.7 | 137.9
308 K | 1283.4 | 33.3 | 105.1
313 K | 1279.5 | 32.9 | 81.64
318 K | 1275.2 | 32.5 | 65.32
323 K | 1271.3 | 32.1 | 52.03
328 K | 1267.1 | 31.7 | 42.34
333 K | 1262.5 | 31.3 | 35.41
338 K | 1258.5 | 30.9 | 28.94
343 K | 1254.5 | 30.5 | 24.77
348 K | 1251.3 | 30.1 | 20.96
353 K | 1247.3 | 29.7 | 18.03
358 K | 1243.3 | 29.3 | 15.83
363 K | 1238.4 | 28.9 | 13.9
368 K | 1234.9 | 28.5 | 12.25
373 K | 1231.1 | 28.2 | 10.86

CCCCCCCC[N+](CC)(CC)CC.O=S(=O)([N-]S(=O)(=O)C(F)(F)F)C(F)(F)F [triethyloctylammonium bis[(trifluoromethyl)sulfonyl]imide]
Conditions | mass density [kg/m3] | surface tension liquid-gas [mN/m] | viscosity [mPa·s]
298 K | 1251.2 | 33.1 | 221.4
303 K | 1247.2 | 32.8 | 163.9
308 K | 1242.9 | 32.3 | 124.7
313 K | 1239.4 | 31.8 | 96.76
318 K | 1235.2 | 31.4 | 76.47
323 K | 1231.3 | 31 | 60.52
328 K | 1227.5 | 30.6 | 48.63
333 K | 1223.2 | 30.1 | 39.85
338 K | 1219 | 29.7 | 33.2
343 K | 1216 | 29.3 | 28.23
348 K | 1212.9 | 28.9 | 23.8
353 K | 1207.8 | 28.6 | 20.36
358 K | 1203.5 | 28.1 | 17.83
363 K | 1200.2 | 27.7 | 15.55
368 K | 1196 | 27.3 | 13.5
373 K | 1192.3 | 26.9 | 12.05

CCCCC[N+](CC)(CC)CC.O=S(=O)([N-]S(=O)(=O)C(F)(F)F)C(F)(F)F [triethylpentylammonium bis(trifluoromethylsulfonyl)imide]
Conditions | mass density [kg/m3] | surface tension liquid-gas [mN/m] | viscosity [mPa·s]
298 K | 1321.5 | 35.7 | 161.6
303 K | 1317.4 | 35.4 | 121.4
308 K | 1313.2 | 35 | 92.11
313 K | 1308.9 | 34.7 | 71.86
318 K | 1304.9 | 34.3 | 57.52
323 K | 1301 | 34 | 46.74
328 K | 1296.6 | 33.6 | 37.78
333 K | 1293.1 | 33.3 | 31.43
338 K | 1289.1 | 32.9 | 26.57
343 K | 1284.7 | 32.6 | 22.47
348 K | 1280.9 | 32.2 | 19.27
353 K | 1277.3 | 31.8 | 16.71
358 K | 1272.9 | 31.5 | 14.79
363 K | 1268.6 | 31.1 | 12.87
368 K | 1265.1 | 30.7 | 11.5
373 K | 1260.7 | 30.4 | 10.17
